According to US20120270237A9, “METHODS FOR THE IDENTIFICATION OF KINASE INTERACTING MOLECULES AND FOR THE PURIFICATION OF KINASE PROTEINS” (Cellzone AG, priority 2009, published 2012):

How the values were obtained:
Experiment in all cases: Kinobeads competition binding, L-363 cell lysate
Conditions in all cases: 10 μM free compound, L-363 lysate
[1] = biological target: T1, ADCK1 (Homo sapiens, UniProt Q86TW2)
T1 construct: capturing and identification of kinases from L-363 cell lysate; endogenous in cells; host or cells: L-363 (treated with MG132 before harvest)
Method: (§1) To one aliquot of cell lysate 10 μM of the free compound (FIG. 3, CZC31326) was added and allowed to bind to proteins in the lysate. Then the affinity matrix with the immobilized compound was added to capture proteins that were not interacting with the previously added free compound. Beads were separated from the lysate and bead bound proteins were eluted in SDS sample buffer and subsequently separated by SDS-Polyacrylamide gel electrophoresis (FIG. 8). Suitable gel bands were cut out and subjected to in-gel proteolytic digestion with trypsin. The second lysate aliquot was processed identically, however no free compound was added (DMSO solvent control). Peptides originating from samples 1 and 2 were labeled with iTRAQ reagents (iTRAQ 114 and iTRAQ 117) and the combined samples were analyzed with a nano-flow liquid chromatography system coupled online to a tandem mass spectrometer (LC-MS/MS) experiment followed by iTRAQ reporter ion quantification in the MS/MS spectra as described in Example 2.
(§2) For this experiment the human plasma cell leukaemia line L-363 was used (German Collection of Microorganisms and Cell Cultures, DSMZ number ACC49, Braunschweig, Germany). Cells were treated for three hours with 20 μM of the proteasome inhibitor MG132 (Z-Leu-Leu-Leu-al, Sigma C2211) prior to cell harvesting.

[2] = biological target: T2, DRAK2 (Homo sapiens, UniProt O94768)
T2 construct: capturing and identification of kinases from L-363 cell lysate; endogenous in cells; host or cells: L-363 (DSMZ ACC49), treated with MG132 before harvest
Method: as §1, §2

[3] = biological target: T3, DYRK1A (Homo sapiens, UniProt Q13627)
T3 construct: capturing and identification of kinases from L-363 cell lysate; endogenous in cells; host or cells: L-363 (DSMZ ACC49), treated with MG132 before harvest
Method: as §1, §2

[4] = biological target: T4, HRI (Homo sapiens, UniProt Q9BQI3)
T4 construct: capturing and identification of kinases from L-363 cell lysate; endogenous in cells; host or cells: L-363 (DSMZ ACC49), treated with MG132 before harvest
Method: as §1, §2

[5] = biological target: T5, INSR (Homo sapiens, UniProt P06213)
T5 construct: capturing and identification of kinases from L-363 cell lysate; endogenous in cells; host or cells: L-363 (DSMZ ACC49), treated with MG132 before harvest
Method: as §1, §2

[6] = biological target: T6, NEK6 (Homo sapiens, UniProt Q9HC98)
T6 construct: capturing and identification of kinases from L-363 cell lysate; endogenous in cells; host or cells: L-363 (DSMZ ACC49), treated with MG132 before harvest
Method: as §1, §2

[7] = biological target: T7, NEK7 (Homo sapiens, UniProt Q8TDX7)
T7 construct: capturing and identification of kinases from L-363 cell lysate; endogenous in cells; host or cells: L-363 (DSMZ ACC49), treated with MG132 before harvest
Method: as §1, §2

[8] = biological target: T8, NIK (Homo sapiens, UniProt Q99558)
T8 construct: capturing and identification of kinases from L-363 cell lysate; endogenous in cells; host or cells: L-363 (DSMZ ACC49), treated 3 h with 20 uM MG132 before harvest
Method: as §1, §2

[9] = biological target: T9, NuaK2 (Homo sapiens, UniProt Q9H093)
T9 construct: capturing and identification of kinases from L-363 cell lysate; endogenous in cells; host or cells: L-363 (DSMZ ACC49), treated with MG132 before harvest
Method: as §1, §2

[10] = biological target: T10, PIK4Ca (Homo sapiens, UniProt P42356)
T10 construct: capturing and identification of kinases from L-363 cell lysate; endogenous in cells; host or cells: L-363 (DSMZ ACC49), treated with MG132 before harvest
Method: as §1, §2

[11] = biological target: SLK (Homo sapiens, UniProt Q9H2G2)
Method: as §1, §2

[12] = biological target: T11, ULK1 (Homo sapiens, UniProt O75385)
T11 construct: endogenous in cells; host or cells: L-363 (DSMZ ACC49), treated with MG132 before harvest
Method: as §1, §2

[13] = biological target: T12, PIP5K2A (Homo sapiens, UniProt P48426); parameters: endogenous in cells; host or cells: L-363 (treated with MG132 for three hours before harvest)
T12 sequence (P48426 1-406): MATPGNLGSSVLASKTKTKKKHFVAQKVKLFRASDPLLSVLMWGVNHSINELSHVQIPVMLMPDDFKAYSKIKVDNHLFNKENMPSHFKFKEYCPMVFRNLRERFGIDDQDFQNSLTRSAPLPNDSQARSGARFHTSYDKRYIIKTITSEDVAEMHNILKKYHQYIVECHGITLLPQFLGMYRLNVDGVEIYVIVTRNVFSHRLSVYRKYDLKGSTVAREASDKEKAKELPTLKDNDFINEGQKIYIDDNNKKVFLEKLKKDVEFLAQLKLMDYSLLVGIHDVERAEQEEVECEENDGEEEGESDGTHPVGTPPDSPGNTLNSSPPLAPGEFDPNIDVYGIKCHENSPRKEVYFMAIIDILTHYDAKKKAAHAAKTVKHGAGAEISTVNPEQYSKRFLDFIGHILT
Method: as §1, §2

[14] = biological target: T13, PKD3 (Homo sapiens, UniProt O94806); parameters: endogenous in cells; host or cells: L-363 (treated with MG132 for three hours before harvest)
T13 sequence (O94806 1-890): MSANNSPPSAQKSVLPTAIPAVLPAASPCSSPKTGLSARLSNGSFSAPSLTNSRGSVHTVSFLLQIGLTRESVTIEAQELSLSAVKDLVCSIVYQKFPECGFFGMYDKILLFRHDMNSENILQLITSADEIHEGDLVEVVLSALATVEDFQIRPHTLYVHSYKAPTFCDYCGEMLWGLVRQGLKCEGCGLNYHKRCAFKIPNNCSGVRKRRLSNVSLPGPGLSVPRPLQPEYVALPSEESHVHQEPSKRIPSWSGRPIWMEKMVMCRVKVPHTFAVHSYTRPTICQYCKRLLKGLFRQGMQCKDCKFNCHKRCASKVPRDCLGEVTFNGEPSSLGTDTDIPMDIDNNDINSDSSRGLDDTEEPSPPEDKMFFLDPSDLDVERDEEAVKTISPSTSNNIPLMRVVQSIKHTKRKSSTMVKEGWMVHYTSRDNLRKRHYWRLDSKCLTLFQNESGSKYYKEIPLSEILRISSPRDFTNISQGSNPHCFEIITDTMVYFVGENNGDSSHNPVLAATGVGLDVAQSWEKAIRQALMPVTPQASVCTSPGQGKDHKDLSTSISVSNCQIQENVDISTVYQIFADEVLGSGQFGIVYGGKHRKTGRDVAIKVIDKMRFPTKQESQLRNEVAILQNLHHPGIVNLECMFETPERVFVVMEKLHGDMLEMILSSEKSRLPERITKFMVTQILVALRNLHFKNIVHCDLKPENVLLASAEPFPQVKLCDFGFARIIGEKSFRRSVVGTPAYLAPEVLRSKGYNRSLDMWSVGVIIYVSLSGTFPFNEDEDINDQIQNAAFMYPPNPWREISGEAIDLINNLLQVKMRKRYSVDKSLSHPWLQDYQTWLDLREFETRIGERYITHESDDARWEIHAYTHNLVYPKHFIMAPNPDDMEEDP
Method: as §1, §2

T1 sequence (Q86TW2 whole entry): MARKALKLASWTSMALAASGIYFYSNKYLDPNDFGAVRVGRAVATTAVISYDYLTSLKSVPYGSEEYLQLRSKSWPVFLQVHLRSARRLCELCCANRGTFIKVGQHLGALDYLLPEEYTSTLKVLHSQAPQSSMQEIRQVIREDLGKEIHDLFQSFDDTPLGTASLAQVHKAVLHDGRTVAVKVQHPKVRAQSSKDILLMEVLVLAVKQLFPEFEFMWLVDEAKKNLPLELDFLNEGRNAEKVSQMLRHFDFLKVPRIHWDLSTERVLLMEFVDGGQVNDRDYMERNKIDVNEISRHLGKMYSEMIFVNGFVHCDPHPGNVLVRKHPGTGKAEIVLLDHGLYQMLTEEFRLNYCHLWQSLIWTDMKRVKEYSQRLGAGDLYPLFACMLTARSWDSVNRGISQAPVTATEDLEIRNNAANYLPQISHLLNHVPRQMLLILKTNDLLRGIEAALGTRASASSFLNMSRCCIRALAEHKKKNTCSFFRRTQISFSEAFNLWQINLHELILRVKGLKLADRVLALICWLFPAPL
T7 sequence (Q8TDX7 whole entry): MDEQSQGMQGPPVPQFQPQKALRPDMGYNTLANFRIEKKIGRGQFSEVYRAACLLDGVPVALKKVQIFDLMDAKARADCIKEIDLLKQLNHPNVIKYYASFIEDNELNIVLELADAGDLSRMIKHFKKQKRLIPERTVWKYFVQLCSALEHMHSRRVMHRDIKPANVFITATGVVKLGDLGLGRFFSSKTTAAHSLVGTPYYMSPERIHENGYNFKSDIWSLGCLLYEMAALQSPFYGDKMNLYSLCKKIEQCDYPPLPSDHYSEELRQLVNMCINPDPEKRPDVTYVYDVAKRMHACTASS
T4 sequence (Q9BQI3 whole entry): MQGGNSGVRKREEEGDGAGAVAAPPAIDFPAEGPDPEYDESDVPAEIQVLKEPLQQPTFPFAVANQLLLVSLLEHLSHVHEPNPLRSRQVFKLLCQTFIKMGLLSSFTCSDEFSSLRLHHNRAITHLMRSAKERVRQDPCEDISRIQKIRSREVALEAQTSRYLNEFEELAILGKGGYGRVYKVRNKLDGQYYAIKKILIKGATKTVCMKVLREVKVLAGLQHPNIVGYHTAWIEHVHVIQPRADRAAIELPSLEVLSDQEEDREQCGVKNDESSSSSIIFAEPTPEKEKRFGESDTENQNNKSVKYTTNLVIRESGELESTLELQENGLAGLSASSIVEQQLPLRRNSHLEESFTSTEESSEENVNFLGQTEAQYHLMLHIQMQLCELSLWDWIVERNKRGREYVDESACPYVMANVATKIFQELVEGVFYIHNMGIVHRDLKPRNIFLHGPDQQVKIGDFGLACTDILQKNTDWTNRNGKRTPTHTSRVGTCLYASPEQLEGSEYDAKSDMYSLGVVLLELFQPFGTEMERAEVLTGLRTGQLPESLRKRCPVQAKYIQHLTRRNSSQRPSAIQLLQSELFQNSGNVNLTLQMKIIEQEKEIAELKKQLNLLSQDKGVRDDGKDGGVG
T9 sequence (Q9H093 whole entry): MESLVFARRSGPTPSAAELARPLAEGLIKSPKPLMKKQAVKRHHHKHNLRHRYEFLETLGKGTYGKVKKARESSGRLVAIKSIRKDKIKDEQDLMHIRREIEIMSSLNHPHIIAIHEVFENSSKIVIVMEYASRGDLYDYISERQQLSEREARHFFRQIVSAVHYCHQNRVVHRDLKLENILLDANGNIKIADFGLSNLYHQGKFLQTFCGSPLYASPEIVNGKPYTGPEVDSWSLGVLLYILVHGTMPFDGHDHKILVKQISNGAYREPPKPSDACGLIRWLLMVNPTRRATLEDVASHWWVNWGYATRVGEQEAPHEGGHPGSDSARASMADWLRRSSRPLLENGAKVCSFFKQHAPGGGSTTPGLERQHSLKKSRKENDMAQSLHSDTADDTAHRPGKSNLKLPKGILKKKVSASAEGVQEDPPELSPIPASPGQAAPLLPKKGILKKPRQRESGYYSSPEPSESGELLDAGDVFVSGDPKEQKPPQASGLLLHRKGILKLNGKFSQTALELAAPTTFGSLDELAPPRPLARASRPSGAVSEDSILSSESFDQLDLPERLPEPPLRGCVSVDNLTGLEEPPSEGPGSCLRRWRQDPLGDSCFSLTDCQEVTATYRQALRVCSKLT
T11 sequence (O75385 whole entry): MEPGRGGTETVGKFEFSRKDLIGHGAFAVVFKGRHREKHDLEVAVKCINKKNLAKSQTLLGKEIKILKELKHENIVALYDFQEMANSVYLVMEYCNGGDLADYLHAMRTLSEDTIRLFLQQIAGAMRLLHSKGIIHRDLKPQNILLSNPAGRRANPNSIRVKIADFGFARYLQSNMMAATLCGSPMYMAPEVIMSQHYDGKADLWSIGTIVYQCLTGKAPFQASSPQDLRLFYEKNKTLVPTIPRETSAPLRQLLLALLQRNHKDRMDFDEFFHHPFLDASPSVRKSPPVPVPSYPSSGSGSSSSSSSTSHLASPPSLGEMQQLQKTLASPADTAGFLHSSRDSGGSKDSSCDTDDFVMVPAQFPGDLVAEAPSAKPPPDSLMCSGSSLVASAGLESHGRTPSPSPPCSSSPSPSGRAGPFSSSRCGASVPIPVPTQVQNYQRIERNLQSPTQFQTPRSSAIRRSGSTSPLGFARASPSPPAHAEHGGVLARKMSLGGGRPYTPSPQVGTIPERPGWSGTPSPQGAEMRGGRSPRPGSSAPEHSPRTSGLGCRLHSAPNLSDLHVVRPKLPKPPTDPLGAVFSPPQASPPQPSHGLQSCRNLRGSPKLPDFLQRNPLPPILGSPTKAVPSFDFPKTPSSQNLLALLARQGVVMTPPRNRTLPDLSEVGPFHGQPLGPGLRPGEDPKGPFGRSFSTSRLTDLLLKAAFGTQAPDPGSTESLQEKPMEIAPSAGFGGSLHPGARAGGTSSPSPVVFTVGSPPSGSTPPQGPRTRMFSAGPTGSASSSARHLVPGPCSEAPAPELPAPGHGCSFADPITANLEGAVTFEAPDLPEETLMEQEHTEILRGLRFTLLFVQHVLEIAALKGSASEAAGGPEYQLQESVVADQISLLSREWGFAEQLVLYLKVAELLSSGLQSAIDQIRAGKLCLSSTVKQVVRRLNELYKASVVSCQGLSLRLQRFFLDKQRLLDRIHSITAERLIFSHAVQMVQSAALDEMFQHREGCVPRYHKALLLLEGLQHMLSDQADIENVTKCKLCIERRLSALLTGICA
T6 sequence (Q9HC98 whole entry): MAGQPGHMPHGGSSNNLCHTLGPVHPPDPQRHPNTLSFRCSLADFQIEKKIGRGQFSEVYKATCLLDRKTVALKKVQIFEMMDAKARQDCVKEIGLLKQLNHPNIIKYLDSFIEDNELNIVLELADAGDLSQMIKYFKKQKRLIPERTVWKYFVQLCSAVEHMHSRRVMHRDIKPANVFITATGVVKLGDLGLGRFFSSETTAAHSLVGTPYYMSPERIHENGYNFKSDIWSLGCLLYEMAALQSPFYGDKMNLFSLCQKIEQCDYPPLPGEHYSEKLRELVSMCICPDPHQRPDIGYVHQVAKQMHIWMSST
SLK, sequence (Q9H2G2 whole entry): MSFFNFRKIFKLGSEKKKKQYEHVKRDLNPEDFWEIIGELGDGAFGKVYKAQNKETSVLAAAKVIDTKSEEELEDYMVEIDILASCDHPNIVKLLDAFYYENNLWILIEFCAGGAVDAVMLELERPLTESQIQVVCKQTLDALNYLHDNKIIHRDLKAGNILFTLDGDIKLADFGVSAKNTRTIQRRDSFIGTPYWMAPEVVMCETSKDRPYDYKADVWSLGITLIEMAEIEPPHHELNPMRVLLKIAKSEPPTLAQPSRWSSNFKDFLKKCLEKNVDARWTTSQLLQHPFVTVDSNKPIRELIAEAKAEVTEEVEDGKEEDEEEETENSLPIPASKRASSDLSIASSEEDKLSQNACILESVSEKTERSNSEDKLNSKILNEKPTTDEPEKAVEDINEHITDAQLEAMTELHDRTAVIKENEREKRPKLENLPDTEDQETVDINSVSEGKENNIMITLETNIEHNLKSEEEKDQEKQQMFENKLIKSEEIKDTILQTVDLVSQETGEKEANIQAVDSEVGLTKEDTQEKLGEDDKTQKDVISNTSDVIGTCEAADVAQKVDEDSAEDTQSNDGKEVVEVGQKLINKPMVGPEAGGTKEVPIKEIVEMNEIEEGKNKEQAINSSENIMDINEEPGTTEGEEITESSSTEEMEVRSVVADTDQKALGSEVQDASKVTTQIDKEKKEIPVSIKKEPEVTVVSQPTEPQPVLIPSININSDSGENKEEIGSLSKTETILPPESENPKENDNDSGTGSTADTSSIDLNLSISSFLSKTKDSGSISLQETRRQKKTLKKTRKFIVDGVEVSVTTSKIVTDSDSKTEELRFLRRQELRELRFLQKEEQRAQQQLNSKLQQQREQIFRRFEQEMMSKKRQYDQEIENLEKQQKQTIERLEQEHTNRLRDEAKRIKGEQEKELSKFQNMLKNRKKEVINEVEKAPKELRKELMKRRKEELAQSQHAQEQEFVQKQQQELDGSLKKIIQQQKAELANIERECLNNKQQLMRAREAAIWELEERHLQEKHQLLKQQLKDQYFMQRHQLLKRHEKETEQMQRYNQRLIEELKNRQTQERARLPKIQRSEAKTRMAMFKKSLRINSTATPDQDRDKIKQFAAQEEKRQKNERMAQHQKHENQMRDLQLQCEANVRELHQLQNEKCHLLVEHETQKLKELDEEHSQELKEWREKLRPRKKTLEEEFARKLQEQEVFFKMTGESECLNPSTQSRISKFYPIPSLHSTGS

## CS(=O)(=O)Nc1ccccc1Nc1nc(Nc2cccc(OCCN)c2)ncc1Cl [CZC31326, N-(2-(2-(3-(2-aminoethoxy)phenylamino)-5-chloropyrimidin-4-ylamino)phenyl)methanesulfonamide]
[1]
  inhibition at 10 µM: 93.8%
[2]
  inhibition at 10 µM: 93.3%
[3]
  inhibition at 10 µM: 96.5%
[4]
  inhibition at 10 µM: 95.8%
[5]
  inhibition at 10 µM: 90.1%
[6]
  inhibition at 10 µM: 83.7%
[7]
  inhibition at 10 µM: 93.9%
[8]
  inhibition at 10 µM: 98%
[9]
  Competition %: 96.7%
[10]
  inhibition at 10 µM: 86%
[11]
  inhibition at 10 µM: 95%
[12]
  Competition %: 96.5%
[13]
  inhibition at 10 µM: 96.4%
[14]
  inhibition at 10 µM: 98.1%
